Results from ChEMBL document CHEMBL5360657, “Discovery of the TLR7/8 Antagonist MHV370 for Treatment of Systemic Autoimmune Diseases” (ACS Med Chem Lett, 2023).

What was measured:
[1] = Clearance in mouse at 3 mg/kg, iv; assay type: ADME, organism-based; conditions: in vivo
[2] = AUC in mouse at 20 mg/kg, po; assay type: ADME, organism-based; set-up: dose 20 mg/kg, route po; conditions: in vivo
[3] = AUC in mouse at 3 mg/kg, iv; assay type: ADME, organism-based; set-up: dose 3 mg/kg, route iv; conditions: in vivo
[4] = Clast in mouse at 20 mg/kg, po; assay type: ADME, organism-based; conditions: in vivo, read-out: Clast
[5] = biological target: Toll-like receptor 7 (Mus musculus) (UniProt P58681); test: In vivo antagonist activity against TLR7 in po dosed mouse assessed as suppression of IFN alpha level measured at 3 hrs by LC-MS/MS analysis; conditions: dose 1-30 mg/kg
Toll-like receptor 4 [6] = biological target: T1, Toll-like receptor 4 (Homo sapiens, UniProt O00206); test: Antagonist activity at TLR4 in human Whole blood cell assessed as reduction in IL-6 level measured after 30 mins; assay type: tissue-based
T1 sequence (O00206 whole entry): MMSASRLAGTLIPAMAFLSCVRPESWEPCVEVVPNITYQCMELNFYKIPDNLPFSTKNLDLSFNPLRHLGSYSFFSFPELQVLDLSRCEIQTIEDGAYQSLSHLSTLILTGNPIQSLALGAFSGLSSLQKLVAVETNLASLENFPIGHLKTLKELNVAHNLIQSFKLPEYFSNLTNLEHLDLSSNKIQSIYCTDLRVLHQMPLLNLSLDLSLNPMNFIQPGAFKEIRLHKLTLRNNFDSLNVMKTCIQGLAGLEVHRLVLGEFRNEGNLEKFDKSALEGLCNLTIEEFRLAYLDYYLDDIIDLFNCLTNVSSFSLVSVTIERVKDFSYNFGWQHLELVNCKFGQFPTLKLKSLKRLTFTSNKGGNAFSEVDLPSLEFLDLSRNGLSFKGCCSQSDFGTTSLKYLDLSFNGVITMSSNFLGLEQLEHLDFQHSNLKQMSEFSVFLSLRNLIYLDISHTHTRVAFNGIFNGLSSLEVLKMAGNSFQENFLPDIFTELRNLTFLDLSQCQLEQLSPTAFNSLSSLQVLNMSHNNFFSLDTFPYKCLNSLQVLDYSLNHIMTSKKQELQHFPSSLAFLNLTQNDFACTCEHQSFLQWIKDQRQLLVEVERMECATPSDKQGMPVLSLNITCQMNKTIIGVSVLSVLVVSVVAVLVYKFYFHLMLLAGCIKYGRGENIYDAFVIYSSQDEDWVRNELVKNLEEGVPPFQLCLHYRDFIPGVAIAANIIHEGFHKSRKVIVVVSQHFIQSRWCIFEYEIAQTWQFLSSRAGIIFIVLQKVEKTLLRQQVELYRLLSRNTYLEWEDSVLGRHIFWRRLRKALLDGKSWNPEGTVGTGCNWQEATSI

[7] = biological target: Toll-like receptor 7 (Mus musculus) (UniProt P58681); test: In vivo antagonist activity against TLR7 in po dosed mouse assessed as suppression of IL-6 level measured at 3 hrs by LC-MS/MS analysis; conditions: dose 1-30 mg/kg
Toll-like receptor 9 = biological target: T2, Toll-like receptor 9 (Mus musculus, UniProt Q9EQU3); test: Antagonist activity at TLR9 in mouse Whole blood cell assessed as reduction in IFN-alpha level measured after 20 hrs by AlphaLISA method; assay type: tissue-based
T2 sequence (Q9EQU3 whole entry): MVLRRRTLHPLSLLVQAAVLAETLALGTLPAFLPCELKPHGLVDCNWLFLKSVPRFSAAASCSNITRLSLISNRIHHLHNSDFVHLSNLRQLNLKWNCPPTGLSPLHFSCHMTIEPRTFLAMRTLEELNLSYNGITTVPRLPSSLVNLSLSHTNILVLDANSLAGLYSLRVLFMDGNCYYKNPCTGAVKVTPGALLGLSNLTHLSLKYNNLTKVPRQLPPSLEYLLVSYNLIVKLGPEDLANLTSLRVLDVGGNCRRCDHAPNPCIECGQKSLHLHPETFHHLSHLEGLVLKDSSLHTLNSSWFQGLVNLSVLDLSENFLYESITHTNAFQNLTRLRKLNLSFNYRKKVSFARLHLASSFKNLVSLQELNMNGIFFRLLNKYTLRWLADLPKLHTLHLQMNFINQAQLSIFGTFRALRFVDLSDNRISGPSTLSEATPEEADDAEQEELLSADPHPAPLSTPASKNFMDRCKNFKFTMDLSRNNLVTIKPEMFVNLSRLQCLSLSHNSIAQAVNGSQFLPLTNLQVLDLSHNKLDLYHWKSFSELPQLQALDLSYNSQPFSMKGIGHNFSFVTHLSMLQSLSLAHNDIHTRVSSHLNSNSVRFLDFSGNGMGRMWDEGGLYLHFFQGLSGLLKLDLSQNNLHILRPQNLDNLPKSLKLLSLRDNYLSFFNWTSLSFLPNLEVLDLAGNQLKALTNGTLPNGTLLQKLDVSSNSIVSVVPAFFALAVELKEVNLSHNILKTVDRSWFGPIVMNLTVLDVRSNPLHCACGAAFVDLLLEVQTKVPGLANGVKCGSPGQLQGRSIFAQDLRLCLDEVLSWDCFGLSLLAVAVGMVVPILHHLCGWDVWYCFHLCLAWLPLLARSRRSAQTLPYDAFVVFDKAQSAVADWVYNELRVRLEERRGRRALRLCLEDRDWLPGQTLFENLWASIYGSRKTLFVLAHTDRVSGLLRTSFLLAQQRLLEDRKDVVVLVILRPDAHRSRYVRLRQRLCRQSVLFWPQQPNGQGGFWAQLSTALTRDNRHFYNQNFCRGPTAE

[8] = biological target: Toll-like receptor 7 (Mus musculus) (UniProt P58681); test: In vivo antagonist activity against TLR7 in po dosed mouse assessed as suppression of TNF level measured at 3 hrs by LC-MS/MS analysis; conditions: dose 1-30 mg/kg
Toll-like receptor 7 = biological target: T3, Toll-like receptor 7 (Homo sapiens, UniProt Q9NYK1); test: Antagonist activity at TLR7 in human Whole blood cell assessed as reduction in IFN-alpha level measured after 30 mins; assay type: tissue-based
T3 sequence (Q9NYK1 whole entry): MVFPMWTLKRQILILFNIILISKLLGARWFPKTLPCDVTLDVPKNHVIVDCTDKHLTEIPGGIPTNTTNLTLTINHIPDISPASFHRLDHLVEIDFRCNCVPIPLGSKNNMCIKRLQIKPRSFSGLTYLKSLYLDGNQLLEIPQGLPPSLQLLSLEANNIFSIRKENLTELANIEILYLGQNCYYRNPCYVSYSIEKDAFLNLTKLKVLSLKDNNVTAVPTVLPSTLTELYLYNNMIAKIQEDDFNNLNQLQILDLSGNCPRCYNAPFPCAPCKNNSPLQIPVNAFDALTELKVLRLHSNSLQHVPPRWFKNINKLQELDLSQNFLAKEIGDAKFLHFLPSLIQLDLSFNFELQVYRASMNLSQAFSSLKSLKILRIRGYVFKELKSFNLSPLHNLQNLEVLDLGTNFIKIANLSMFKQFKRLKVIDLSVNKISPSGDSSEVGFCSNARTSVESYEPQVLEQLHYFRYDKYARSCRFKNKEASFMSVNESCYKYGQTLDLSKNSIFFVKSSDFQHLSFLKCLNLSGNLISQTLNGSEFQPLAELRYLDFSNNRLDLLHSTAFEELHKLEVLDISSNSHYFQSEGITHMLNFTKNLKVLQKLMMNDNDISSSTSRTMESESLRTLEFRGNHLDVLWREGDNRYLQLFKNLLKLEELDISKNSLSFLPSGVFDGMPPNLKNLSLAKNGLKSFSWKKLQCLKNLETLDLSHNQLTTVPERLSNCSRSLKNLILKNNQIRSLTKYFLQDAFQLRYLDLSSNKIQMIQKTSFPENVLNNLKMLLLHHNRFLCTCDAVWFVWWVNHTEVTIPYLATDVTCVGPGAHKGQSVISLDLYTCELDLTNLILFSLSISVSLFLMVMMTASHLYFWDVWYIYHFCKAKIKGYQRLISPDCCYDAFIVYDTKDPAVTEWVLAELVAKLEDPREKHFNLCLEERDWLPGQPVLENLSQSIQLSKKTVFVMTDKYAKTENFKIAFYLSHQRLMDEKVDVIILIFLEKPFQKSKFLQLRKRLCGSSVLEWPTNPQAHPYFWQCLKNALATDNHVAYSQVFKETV

[9] = biological target: Toll-like receptor 7 (Mus musculus) (UniProt P58681); test: In vivo antagonist activity against TLR7 in mouse assessed as inhibition of IL-6 level at 10 mg/kg, po measured after 2 hrs by LC-MS/MS analysis relative to control
[10] = biological target: Toll-like receptor 7 (Mus musculus) (UniProt P58681); test: In vivo antagonist activity against TLR7 in mouse assessed as suppression of IFN alpha level at 30 mg/kg, po measured at 3 hrs by LC-MS/MS analysis
Toll-like receptor 4 [11] = biological target: T1, Toll-like receptor 4; test: Antagonist activity at TLR4 in human PBMC cells assessed as reduction in IL-6 level measured after 20 hrs by AlphaLISA assay; assay type: cell-based

clearance [1]	AUC [2]	AUC [3]	concentration [4]	SMILES	Activity [5]	IC50 (Toll-like receptor 4 [6])	Activity [7]	IC50 (Toll-like receptor 9)	Activity [8]	IC50 (Toll-like receptor 7)	inhibition in vivo at 10 mg/kg [9]	Activity [10]	IC50 (Toll-like receptor 4 [11])
24 mL/min/kg	1.15 µM·h	5.005 µM·h	35 nM	Cc1cc(N2CCc3c(c(C)nn3CC34CCC(N)(CC3)CC4)C2)c2cnn(C)c2n1	–	–	–	–	–	–	–	–	–
–	–	–	–	Cc1cc(N2CCc3c(c(C)nn3CC34CCC(NC(=O)[C@@H]5COCCN5)(CC3)CC4)C2)c2cnn(C)c2n1 [MHV-370]	Dose-Dependent Effect	> 10 µM	Dose-Dependent Effect	> 10 µM	Dose-Dependent Effect	0.007 µM	~100%	1347 ng/mL	> 10 µM
